{"source": "patent US7618977B2", "about": "“Method of treating dermatitis comprising administering a chymase inhibitor” (Asubio Pharma Co., Ltd., priority 2000, dated 2009)", "key": {"[1]": {"test_system": "dermatitis induced by repeated application of hapten", "experiment": "Mouse dermatitis model induced by repeated application of hapten (DNFB), ear thickness", "format": "in vivo, C3H/HeN mice", "conditions": "for suppression of increase in ear thickness (skin reaction after hapten application): five days a week", "description": "Dermatitis was induced in accordance with an already reported method (J. Pharmacol. Exp. Ther. 283, 321, 1997) using dinitrofluorobenzene (DNFB) as hapten. That is, the right ears of eight-week old female C3H/HeN mice (Nippon Clare) (n=7) were painted with 0.15% DNFB (25 μl) dissolved in an acetone/olive oil (3:1) every seven days six times. When applying the hapten each time, the ear thickness was measured by a micrometer (Digimatic Indicator, Mitsutoyo Co.) immediately before the application and 1 hour, 6 hours, 24 hours, and 48 hours after the application so as to find the amount of increase from the ear thickness before the first application of hapten. Further, a group similarly treated with an acetone/olive oil solution (3:1) not containing DNFB was used as a control. Further, in a test separate from the above, the ears were cut off immediately before the third application of hapten, the chymase-like activity of the skin was measured in accordance with an already reported method (n=3), and this was compared with the activity of mice treated with an acetone/olive oil solution (3:1) not containing DNFB (n=2).\nThe effect of a test substance on dermatitis was investigated by inducing dermatitis in accordance with the method described in Example 9 (n=7) and measuring the ear thickness in the same way as in Example 9. As the test substance, three chymase inhibitors (Compound 18, Compound 34, and Compound 35) were used, while as the control, the steroid prednisolone (Nakarai Tesc Inc.) was used. Further, the test substance was suspended in saline containing 0.5% hydroxypropyl cellulose in the same way as in Example 3 (HPC/saline) and intraperitoneally administered in dosages of 10 mg/kg or 50 mg/kg once a day for five consecutive days a week until the end of the test; the first administration was performed immediately before the start of the hapten application. Further, a group similarly treated with DNFB and administered HPC/saline instead of the test substance was used as a control group."}, "eosinophils of the skin": {"test_system": "eosinophils of the skin", "experiment": "Increase in eosinophils of skin in hapten-induced mouse dermatitis model", "format": "in vivo, C3H/HeN mice", "conditions": "48 hours after sixth application of hapten", "description": "The effect of a chymase inhibitor on the infiltration of eosinophils of the skin in the test of Example 10 was studied. That is, 48 hours after the sixth application of hapten, the ears of the mice were fixed with formalin and paraffin sections prepared in accordance with an ordinary method. The sections were stained with Fast Green (Fluka), known to specifically stain eosinophils (Current Protocol in Immunology, Wiley Interscience). That is, the deparaffined sections were fixed with 100% methanol for 1 minute, then stained for 30 minutes by 0.2% Fast Green dissolved in 70% ethanol. The eosinophils were measured by randomly selecting 10 fields (×400) under a microscope and counting the number of cells per area using an ocular grid. As the chymase inhibitor, the Compound 18 and Compound 34 were used and =administered by the method described in Example 10. Further, a group treated with an acetone/olive oil solution (3:1) not containing DNFB was used as the non-induced control group, while a group treated with DNFB and administered HPC/saline instead of the test substance was used as the control for the group administered the chymase inhibitor."}, "natural onset dermatitis": {"test_system": "natural onset dermatitis", "experiment": "Natural onset dermatitis (NC/Nga) mice", "format": "in vivo", "conditions": "150 mg/kg/day in drinking water, 35 days", "source_text": "NC/Nga mice were bred and raised in accordance with the methods described in previous reports (Progress in Medicine 19, 1201, 1999). Specifically, 5-week old NC/Nga mice obtained from Charles River Japan and raised under a specific pathogen free (SPF) environment were mixed with NC/Nga mice bred by the Faculty of Applied Biological Science of Hiroshima University starting from 6 weeks of age, kept until 15 weeks of age in a normal non-SPF environment, then used for the tests. The tests were conducted under non-SPF, conventional environment. The test substance (Compound 18) was mixed with the drinking water and administered for 35 consecutive days at 150 mg/kg/day (n=7), then an evaluation was conducted in accordance with the method described in previous reports (Progress in Medicine 19, 1201, 1999). That is, first, 35 days after the start of administration, the five items of (1) scratching behavior, (2) edema, (3) erythema and hemorrhaging, (4) depilation and ulceration, and (5) dryness were scored as 0 to 2 and the total found to judge the outer appearance of the skin. Next, the ears and skin of the back were fixed with formalin, embedded in paraffin, and histologically analyzed by staining the ear specimens by the hematoxylin and Eosin method, Toluidine Blue method, or Congo Red method (Stain Technol. 56, 323, 1981) and by staining the back skin specimens by the Toluidine Blue method or Congo Red method. Sections of the ear stained with Hematoxylin and Eosin were evaluated by judging the change in tissue in four scales of 0 to 3 for three items of (1) thickness of epidermis, (2) thickness of dermis, and (3) cellular infiltration and expressing as the total score. Further, the specimens stained with Toluidine Blue and stained with Congo Red were used for counting the mast cells and eosinophils. Specifically, the eosinophils of the back skin were counted in a ×400 field of a microscope, while the other cells were counted in a total of five ×200 fields and the totals expressed."}, "mast cells of skin": {"test_system": "mast cells of skin", "experiment": "Increase in number of mast cells of skin in hapten-induced mouse dermatitis model", "format": "in vivo, C3H/HeN mice", "conditions": "48 hours after sixth application of hapten", "description": "The effect of a chymase inhibitor on the increase in mast cells of skin in the test of Example 10 was studied. In the same way as Example 11, the ears of the mice were fixed with formalin and paraffin sections prepared by an ordinary method 48 hours after the sixth application of hapten. The mast cells of the sections were stained by the Toluidine Blue method, then the number of mast cells were counted under a microscope (×400) for 10 fields per section. The density of mast cells of the skin was measured in accordance with the method of Kitagaki et al. (J. Invest. Dermatol. 105, 749, 1995). As the chymase inhibitor, use was made of Compound 18 and Compound 34. These were administered by the method described in Example 10. Further, a group treated with an acetone/olive oil solution (3:1) not containing DNFB was used as the non-induced control group, while a group treated with DNFB and administered HPC/saline instead of the test substance was used as the control for the group administered the chymase inhibitor."}, "[2]": {"test_system": "human polymorphonuclear leukocytes (PMN)", "experiment": "Human chymase-induced migration of polymorphonuclear leukocytes, 48-well chemotaxis chamber", "format": "cell-based", "conditions": "inhibitor in lower well, 1% dimethyl sulfoxide, 37° C. 1 hour", "description": "In Example 6, it was shown that a remarkable infiltration of leukocytes is observed in late-phase reaction of human chymase-induced dermatitis. The effect of human chymase on the migration of polymorphonuclear leukocytes (PMN) in vitro was investigated for the purpose of investigating the mechanism of chymase-induced leukocyte infiltration. PMN was isolated by adding a ⅕th volume of 6% dextran solution to heparinized whole blood from normal healthy subject and allowing it to stand at 37° C. for 1 hour, then layering the supernatent on Ficoll-Paque (Amersham Pharmacia Biotech) and centrifuging it. Further, the migration of PMN was measured by using a 48-well chemotaxis chamber (NeuroProbe Co.) by the textbook method (Seibutsu Yakkagaku Jikken Koza (Biopharmacology Experiment Lectures) 12, 315, Hirokawa Shoten). That is, a medium containing human chymase (200 to 800 nM) or fMLP (N-formyl-L-methionyl-L-leucyl-L-phenylalanine, Sigma-Aldrich Co.) (10 nM) was placed in the lower well of the chamber. The upper well and the lower well were separated by a polycarbonate filter (pore size 5 μm) (NeuroProbe Co.) PMN (1×10^6/ml) was added to the upper well and cultured at 37° C. for 1 hour, then the filter was fixed, stained and the number of cells in the membrane were counted under a microscope (400×) (Seibutsu Yakkagaku Jikken Koza (Biopharmacology Experiment Lectures) 12, 315). For the cell staining, a hemacolor solution (Merck) was used. In this test, when investigating the effect of the chymase inhibitor, a chymase inhibitor (Compound 18 or Compound 34) was dissolved in dimethyl sulfoxide and added to the lower well of the chamber just before the addition of the human chymase. The concentration of the compound was adjusted so that the final concentration of the dimethyl sulfoxide became 1%."}, "[3]": {"test_system": "Ascaris-induced mouse biphasic dermatitis", "experiment": "Ascaris-induced mouse biphasic dermatitis model, ear edema", "format": "in vivo, BALB/c mice", "description": "Ascaris-induced biphasic dermatitis was induced according to the method described previously (Folia Pharmacol. Jap. 112, 221, 1998). That is, 8-week old BALB/c mice (Charles River Japan) were sensitized by intraperitoneal injection of 0.5 ml of a 1:1 mixture of ascaris extract (800 μg/ml, Cosmo Bio Co., Ltd.) and an alum saline suspension (16 mg/ml in saline). Two weeks after the sensitization, 10 μl of ascaris extract (1 mg/ml) was injected intradermally to the right ear of mice. The edema induced at the ear were evaluated immediately before intradermal injection of the ascaris extract (n=3) and 1 hour after (n=4), 2 hours after (n=4), 4 hours after (n=4), 6 hours after (n=4), 16 hours after (n=4), and 24 hours after injection (n=4), by weighing ear biopsy prepared with a punch (a diameter of 6 mm, Fukui Kiko Shokai) and measuring their weights. The edema (mg) was expressed as the difference in the weight of the ear punch biopsy between the right and the left ears of the same mouse. Dermatitis was induced in accordance with the method described in Example 2 and the ear edema was measured in the same way as in Example 2, 1 hour (n=6) and 16 hours (n=8) after the intradermal administration of ascaris extract to the ears to investigate the effects of the test substance on dermatitis. As the chymase inhibitor, Compound 34 was used. As the control drug, diphenhydrazine (antihistamine, Sigma) and prednisolone (steroid, Nakarai Tesc Co.) were used. Each drug under study was suspended in saline containing 0.5% hydroxypropyl cellulose and administered intraperiotoneally 60 minutes before intradermal administration of ascaris extract. A group of mice sensitized with ascaris extract and challenged by intradermal injection of saline was used as a control (n=3)."}, "[4]": {"conditions": "50 mg/kg intraperitoneal once a day, p<0.05 Dunnett's test"}, "[5]": {"conditions": "10 mg/kg intraperitoneal once a day"}, "[6]": {"conditions": "50 mg/kg intraperitoneal, 60 minutes before ascaris extract, p<0.01"}}, "note": "Counter-ions that a name gives are not always drawn."}
{"smiles": "Cl.O=c1[nH]c2cc(Cl)ccc2c(=O)n1S(=O)(=O)c1ccc(-c2cc[nH]n2)cc1", "note": "[Compound 35, 7-chloro-3-[4-(pyrazol-3-yl)benzenesulfonyl]-2,4(1H,3H)-quinazolinedione Hydrochloride]", "values": [{"measurement": "suppression of increase in ear thickness (skin reaction after hapten application)", "setting": "[1]; [4]", "value": "significantly suppressed"}]}
{"smiles": "Nc1cc(S(=O)(=O)n2c(=O)[nH]c3cc(Cl)ccc3c2=O)ccc1C(=O)O", "note": "[Compound 18, 4-[(7-chloro-2.4 (1H,3H)-quinazolinedion-3-yl)sulfonyl]anthranilic Acid Monosodium Salt]", "values": [{"measurement": "suppression of increase in ear thickness (skin reaction after hapten application)", "setting": "[1]; [5]", "value": "significant effect"}, {"measurement": "suppression of increase in ear thickness (skin reaction after hapten application)", "setting": "[1]; [4]", "value": "significantly suppressed"}, {"measurement": "rate of suppression of increase in eosinophils", "setting": "eosinophils of the skin; 10 mg/kg intraperitoneal", "value": 37.1, "unit": "%"}, {"measurement": "rate of suppression of increase in eosinophils", "setting": "eosinophils of the skin; 50 mg/kg intraperitoneal", "value": 60.5, "unit": "%"}, {"measurement": "number of mast cells of ear skin and back skin", "setting": "natural onset dermatitis", "value": "significant suppressive effect"}, {"measurement": "numbers of eosinophils of ear skin and back skin", "setting": "natural onset dermatitis", "value": "significantly suppressed"}, {"measurement": "histological score of the ears", "setting": "natural onset dermatitis; p<0.05 Mann-Whitney", "value": "decreased significantly"}, {"measurement": "dermatitis score (clinical skin score)", "setting": "natural onset dermatitis; vs control group, p<0.05 Mann-Whitney", "value": "decreased significantly"}, {"measurement": "rate of suppression of increase in density of mast cells", "setting": "mast cells of skin; 10 mg/kg intraperitoneal", "value": "about 57%"}, {"measurement": "rate of suppression of increase in density of mast cells", "setting": "mast cells of skin; 50 mg/kg intraperitoneal", "value": "about 64%"}, {"measurement": "suppression of human chymase-promoted migration of human PMN", "setting": "[2]", "value": "significantly suppressed"}]}
{"smiles": "CS(=O)(=O)O.Nc1cccc(S(=O)(=O)n2c(=O)[nH]c3cc(Cl)ccc3c2=O)c1", "note": "[Compound 34, 3-(3-aminobenzenesulfonyl)-7-chloro-2,4-(1H,3H)quinazolinedion Methanesulfonic Acid Salt]", "values": [{"measurement": "suppression of increase in ear thickness (skin reaction after hapten application)", "setting": "[1]; [5]", "value": "significant suppressive effect"}, {"measurement": "suppression of increase in ear thickness (skin reaction after hapten application)", "setting": "[1]; [4]", "value": "significantly suppressed"}, {"measurement": "effect on increase in eosinophils", "setting": "eosinophils of the skin; 10 and 50 mg/kg intraperitoneal", "value": "no statistically significant difference"}, {"measurement": "rate of suppression, early-phase reaction (ear edema after 1 hour)", "setting": "[3]; [6]", "value": "about 41%"}, {"measurement": "rate of suppression, late-phase reaction (ear edema after 16 hours)", "setting": "[3]; [6]", "value": "about 45%"}, {"measurement": "rate of suppression of increase in density of mast cells", "setting": "mast cells of skin; 10 mg/kg intraperitoneal", "value": "about 37%"}, {"measurement": "rate of suppression of increase in density of mast cells", "setting": "mast cells of skin; 50 mg/kg intraperitoneal", "value": "about 51%"}, {"measurement": "suppression of human chymase-promoted migration of human PMN", "setting": "[2]", "value": "significantly suppressed"}]}
{"smiles": "CN(C)CCOC(c1ccccc1)c1ccccc1", "note": "[diphenhydrazine]", "values": [{"measurement": "rate of suppression, early-phase reaction", "setting": "[3]; control drug, intraperitoneal, dose not given, 1 hour after challenge", "value": 79, "unit": "%"}, {"measurement": "effect against the late-phase reaction", "setting": "[3]; control drug, intraperitoneal, dose not given, 16 hours after challenge", "value": "almost no effect"}]}
{"smiles": "C[C@]12C=CC(=O)C=C1CC[C@@H]1[C@@H]2[C@@H](O)C[C@@]2(C)[C@H]1CC[C@]2(O)C(=O)CO", "note": "[Prednisolone, prednisolone]", "values": [{"measurement": "suppression of dermatitis (ear thickness)", "setting": "[1]; control drug, 10 mg/kg or 50 mg/kg intraperitoneal", "value": "suppressed dermatitis in this model in a dose-dependent manner"}, {"measurement": "rate of suppression, late-phase reaction", "setting": "[3]; 30 mg/kg intraperitoneal, 16 hours after challenge", "value": 67, "unit": "%"}, {"measurement": "effect against the early-phase reaction", "setting": "[3]; control drug, intraperitoneal, 1 hour after challenge", "value": "substantially ineffective"}]}
